Tests used:
[1] = Single dose pharmacokinetics in animals, rabbit; format: in vivo, New Zealand White rabbits; details: male, New Zealand White, plasma, after Formula II 20 mg/kg oral, read-out: exposure (expressed as AUC)
Experimental: Pharmacokinetic studies were performed in various animal species dosed with the compound according to Formula II to determine the exposure to the compound according to Formula I as well as its apparent terminal half life (T1/2), when possible.
Sprague-Dawley rats (male, 200-250 g), CD1 mice (male, 25-30 g), Beagle dogs (male, 9-10 kg), Göttingen minipigs (male, […]) were acclimatized for at least 7 days before treatment and were kept on a 12 hr light/dark cycle (07 h00-19 h00).
Temperature was maintained at approximately 22° C., and food and water were provided ad libitum. […]
Blood samples were collected over a 24-h period via the jugular vein (dog, minipig), ear blood vessel (rabbit), cardiac puncture (mouse) or retro-orbital sinus (rat) with lithium heparin as anti-coagulant. Whole blood samples were centrifuged and the resulting plasma samples were stored at −20° C. pending analysis.
Plasma concentrations of the compound according to Formula I and of the compound according to Formula II were determined by an LC-MS/MS method with a limit of quantification ≦10.0 ng/mL for both Formula I and Formula II for all species.
Pharmacokinetic parameters were calculated using a statistical analysis package (WinNonLin (Pharsight, Sunnyvale, Calif.: CA 94086, USA).

rat CIA model = test: CIA model 2 (rat collagen induced arthritis, ankle diameter); format: in vivo, Female Lewis rats
Description: Female Lewis rats (n=76) that weighed 165-194 grams (mean approx. 178 g) on arthritis day 0 were obtained from Charles River Laboratories, Inc., Wilmington, Mass., (ref#393739). Animals were identified by a distinct number at the base of the tail delineating group and animal number.
Upon arrival, animals were housed 4/cage in shoe-box polycarbonate cages and acclimated for 8 days prior to being immunized with type II collagen. No concurrent medications were given.
During the acclimation and study periods, animals were housed in a laboratory environment with temperatures ranging 19-25° […]. and relative humidity of 30%-70%. Automatic timers provided 12 h of light and 12 h of dark. Animals were allowed access ad libitum to food and water.
Acclimated female Lewis rats were anesthetized with Isoflurane and receive subcutaneous/intradermal (SC/ID) injections with 300 μL of Freund's Incomplete Adjuvant (Difco, Detroit, Mich.) containing 2 mg/mL bovine type II collagen (Elastin Products, Owensville, Mo.) at the base of the tail and 2 sites on the back on day −9 and on day −3.
Collagen was prepared by making a 4 mg/mL solution in 0.01N Acetic acid. Equal volumes of collagen and Freund's incomplete adjuvant, were emulsified by hand mixing until a bead of this material holds its form when placed in water. Each animal received 300 μL of the mixture on each occasion divided over 3 subcutaneous sites on back.
On study day 1, onset of arthritis occurred and animals were randomized into treatment groups. After randomization, all cages were labelled with protocol number, group number, and animal numbers. Randomization into each group was done after ankle joint swelling was obviously established and there was good evidence of bilateral disease.
Animals with established type II collagen arthritis were treated daily (QD) by the oral (PO) route for 13 days with vehicle (methylcellulose 0.5% (w/v)), or with active compound(s) prepared in methylcellulose, 0.5% (w/v). Oral dosing was initiated on arthritis day 1 and continued daily (QD at 24 h intervals) through day 13. Animals were terminated on arthritis day 14.
The severity of the arthritis was evaluated by measuring the diameter of both ankles on the animals. Caliper measurements of ankles were taken every day beginning on day 0, with a Digitrix II micrometer (Fowler & NSK). Baseline measurements were taken using one ankle with values rounded to one-thousandth of an inch. Measurements were confirmed as clinically normal (0.260-0.264 in) by comparison with historical values for rats based on a range of body weights. Baseline measurements were then applied to both ankles, and these values remain with the animal so long as the ankle was clinically normal with good definition of all the ankle bones and no evidence of inflammation. Animals were terminated on day 14.

O=C(Nc1nc2cccc(-c3ccc(CN4CCS(=O)(=O)CC4)cc3)n2n1)C1CC1 [Formula II, Cyclopropanecarboxylic acid {5-[4-(1,1-dioxo-thiomorpholin-4-ylmethyl)-phenyl]-[1,2,4]triazolo[1,5-a]pyridin-2-yl}-amide]
AUC [1]: 26000 ng·h/mL | ankle diameter (rat CIA model; group C: Formula II 1 mg/kg PO QD, day 0): 0.2625 inches | ankle diameter (rat CIA model; group C: Formula II 1 mg/kg PO QD, day 1): 0.2716 inches | ankle diameter (rat CIA model; group C: Formula II 1 mg/kg PO QD, day 2): 0.2755 inches | ankle diameter (rat CIA model; group C: Formula II 1 mg/kg PO QD, day 3): 0.2869 inches | ankle diameter (rat CIA model; group C: Formula II 1 mg/kg PO QD, day 4): 0.2990 inches | ankle diameter (rat CIA model; group C: Formula II 1 mg/kg PO QD, day 5): 0.3106 inches | ankle diameter (rat CIA model; group C: Formula II 1 mg/kg PO QD, day 6): 0.3231 inches | ankle diameter (rat CIA model; group C: Formula II 1 mg/kg PO QD, day 7): 0.3296 inches | ankle diameter (rat CIA model; group C: Formula II 1 mg/kg PO QD, day 8): 0.3291 inches | ankle diameter (rat CIA model; group C: Formula II 1 mg/kg PO QD, day 9): 0.3268 inches | ankle diameter (rat CIA model; group C: Formula II 1 mg/kg PO QD, day 10): 0.3270 inches | ankle diameter (rat CIA model; group C: Formula II 1 mg/kg PO QD, day 11): 0.3185 inches | ankle diameter (rat CIA model; group C: Formula II 1 mg/kg PO QD, day 12): 0.3178 inches | ankle diameter (rat CIA model; group C: Formula II 1 mg/kg PO QD, day 13): 0.3185 inches | ankle diameter (rat CIA model; group C: Formula II 1 mg/kg PO QD, day 14): 0.3226 inches | ankle diameter (rat CIA model; group D: Formula II 3 mg/kg PO QD, day 0): 0.2623 inches | ankle diameter (rat CIA model; group D: Formula II 3 mg/kg PO QD, day 1): 0.2718 inches | ankle diameter (rat CIA model; group D: Formula II 3 mg/kg PO QD, day 2): 0.2755 inches | ankle diameter (rat CIA model; group D: Formula II 3 mg/kg PO QD, day 3): 0.2869 inches | ankle diameter (rat CIA model; group D: Formula II 3 mg/kg PO QD, day 4): 0.2957 inches | ankle diameter (rat CIA model; group D: Formula II 3 mg/kg PO QD, day 5): 0.3058 inches | ankle diameter (rat CIA model; group D: Formula II 3 mg/kg PO QD, day 6): 0.3168 inches | ankle diameter (rat CIA model; group D: Formula II 3 mg/kg PO QD, day 7): 0.3205 inches | ankle diameter (rat CIA model; group D: Formula II 3 mg/kg PO QD, day 8): 0.3259 inches | ankle diameter (rat CIA model; group D: Formula II 3 mg/kg PO QD, day 9): 0.3216 inches | ankle diameter (rat CIA model; group D: Formula II 3 mg/kg PO QD, day 10): 0.3197 inches | ankle diameter (rat CIA model; group D: Formula II 3 mg/kg PO QD, day 11): 0.3156 inches | ankle diameter (rat CIA model; group D: Formula II 3 mg/kg PO QD, day 12): 0.3165 inches | ankle diameter (rat CIA model; group D: Formula II 3 mg/kg PO QD, day 13): 0.3175 inches | ankle diameter (rat CIA model; group D: Formula II 3 mg/kg PO QD, day 14): 0.3174 inches | significance to vehicle control (ANOVA) in the CIA second model (rat CIA model; group E: Formula II 10 mg/kg PO QD): mg/kg (*) (((*) = p ≦ 0.05 ANOVA to vehicle control)) | ankle diameter (rat CIA model; group E: Formula II 10 mg/kg PO QD, day 0): 0.2626 inches | ankle diameter (rat CIA model; group E: Formula II 10 mg/kg PO QD, day 1): 0.2718 inches | ankle diameter (rat CIA model; group E: Formula II 10 mg/kg PO QD, day 2): 0.2744 inches | ankle diameter (rat CIA model; group E: Formula II 10 mg/kg PO QD, day 3): 0.2808 inches | ankle diameter (rat CIA model; group E: Formula II 10 mg/kg PO QD, day 4): 0.2850 inches | ankle diameter (rat CIA model; group E: Formula II 10 mg/kg PO QD, day 5): 0.2921 inches | ankle diameter (rat CIA model; group E: Formula II 10 mg/kg PO QD, day 6): 0.3000 inches | ankle diameter (rat CIA model; group E: Formula II 10 mg/kg PO QD, day 7): 0.3031 inches | ankle diameter (rat CIA model; group E: Formula II 10 mg/kg PO QD, day 8): 0.3108 inches | ankle diameter (rat CIA model; group E: Formula II 10 mg/kg PO QD, day 9): 0.3119 inches | ankle diameter (rat CIA model; group E: Formula II 10 mg/kg PO QD, day 10): 0.3122 inches | ankle diameter (rat CIA model; group E: Formula II 10 mg/kg PO QD, day 11): 0.3090 inches | ankle diameter (rat CIA model; group E: Formula II 10 mg/kg PO QD, day 12): 0.3070 inches | ankle diameter (rat CIA model; group E: Formula II 10 mg/kg PO QD, day 13): 0.3069 inches | ankle diameter (rat CIA model; group E: Formula II 10 mg/kg PO QD, day 14): 0.3066 inches | significance to vehicle control (ANOVA) in the CIA second model (rat CIA model; group F: Formula II 30 mg/kg PO QD): mg/kg (*) (((*) = p ≦ 0.05 ANOVA to vehicle control)) | ankle diameter (rat CIA model; group F: Formula II 30 mg/kg PO QD, day 0): 0.2620 inches | ankle diameter (rat CIA model; group F: Formula II 30 mg/kg PO QD, day 1): 0.2718 inches | ankle diameter (rat CIA model; group F: Formula II 30 mg/kg PO QD, day 2): 0.2679 inches | ankle diameter (rat CIA model; group F: Formula II 30 mg/kg PO QD, day 3): 0.2683 inches | ankle diameter (rat CIA model; group F: Formula II 30 mg/kg PO QD, day 4): 0.2708 inches | ankle diameter (rat CIA model; group F: Formula II 30 mg/kg PO QD, day 5): 0.2698 inches | ankle diameter (rat CIA model; group F: Formula II 30 mg/kg PO QD, day 6): 0.2696 inches | ankle diameter (rat CIA model; group F: Formula II 30 mg/kg PO QD, day 7): 0.2706 inches | ankle diameter (rat CIA model; group F: Formula II 30 mg/kg PO QD, day 8): 0.2741 inches | ankle diameter (rat CIA model; group F: Formula II 30 mg/kg PO QD, day 9): 0.2721 inches | ankle diameter (rat CIA model; group F: Formula II 30 mg/kg PO QD, day 10): 0.2706 inches | ankle diameter (rat CIA model; group F: Formula II 30 mg/kg PO QD, day 11): 0.2711 inches | ankle diameter (rat CIA model; group F: Formula II 30 mg/kg PO QD, day 12): 0.2685 inches | ankle diameter (rat CIA model; group F: Formula II 30 mg/kg PO QD, day 13): 0.2684 inches | ankle diameter (rat CIA model; group F: Formula II 30 mg/kg PO QD, day 14): 0.2679 inches

From patent US20160296529A1, “AMINOTRIAZOLOPYRIDINE FOR USE IN THE TREATMENT OF INFLAMMATION, AND PHARMACEUTICAL COMPOSITIONS THEREOF” (priority 2012, published 2016)
